{"source": "patent US20160022751A1", "about": "“NOVEL COMPOSITION FOR TREATING ALZHEIMER'S DISEASE AND IMPROVING COGNITIVE FUNCTION OF ALZHEIMER'S PATIENTS” (GANGNEUNG-WONJU NATIONAL UNIVERSITY INDUSTRY ACADEMY …, priority 2014, published 2016)", "key": {"NEP": {"system": "NEP", "assay": "NEP mRNA expression in HMO6 human microglial cells (qPCR)", "assay_type": "cell-based", "experimental": "HMO6 human microglial cell line was kindly provided by Dr. SU Kim (Chung-Ang University, Korea). HMO6 cells were grown in Dulbecco's Modified Eagle's Medium (DMEM) (Hyclone, USA) supplemented with 10% fetal bovine serum, 100 U/ml penicillin, and 100 μg/ml streptomycin (Invitrogen, USA). Cultures were maintained under 5% CO2 at 37° C. in tissue culture flasks. Cells were grown to >90% confluency and subjected to no more than 20 cell passages. Medium was changed every 2-3 days. Subconfluent cells were harvested and seeded at a density of 5×10^5 cells or 5×10^6 cells in poly-L-lysine-coated 35-mm or 60-mm culture plates. […]\nTotal RNA extracts from HMO6 cells or perfused brain tissue were prepared using the Trizol method (Invitrogen). cDNA was synthesized from RNA by reverse transcription of 1 μg total RNA using the Improm-II reverse transcription system (Promega, Wis., USA) and oligo dT primers in a total volume of 20 μl. […] Relative sample expression levels were calculated using Rotor-Gene 6000 Series Software 1.7 and were expressed relative to β-actin for mice or glyceraldehyde 3-phosphate dehydrogenase for HMO6 cells and corrected for between-run variability. Data for the experimental samples are expressed as a percentage of the internal control gene. […]"}, "Aβ42": {"system": "Aβ42", "assay": "Passive avoidance trials (PAT) in Aβ42-infused animals", "assay_type": "in vivo", "settings": "Aβ42 rats administered Rg3 (FIG. 25)", "experimental": "Male BALB/c mice (10 weeks old) were purchased from Samtaco (Korea), and were adapted to laboratory conditions (temperature: 20±2° C., relative humidity: 50%, light/dark cycle: 12 h) for 1 week. Five-week-old male Sprague-Dawley rats were obtained from Daehan-Biolink (Korea) for learning and memory testing. The animals (n=5/group) were maintained at a constant temperature (23±2° C.), relative humidity, 55±10%, and 12-h light/dark cycle. The animals were fed a standard rodent chow and purified water ad libitum. Lyophilized Aβ42 (0.5 mg, Bachem Torrance, USA) was resuspended in PBS (pH 7.4) by shaking for 7 days at room temperature to prepare the fibrillar-aggregated Aβ42 (fAβ42). At 10 weeks of age, mice were anesthetized, and 1 μl fAβ42 (350 μM stock concentration) was stereotaxically injected unilaterally into the parietal cortex (anterior 1.7 mm, lateral 1 mm, and ventral 1 mm to the bregma above the hippocampus within 1 min) (Mohajeri et al., J. Biol. Chem., 277: 35460-35465, 2002)\nThe present inventor performed learning and memory tests using rats in order to investigate whether Rg3 can ameliorate symptoms of Alzheimer's model animals in deed. […] The latency time of stay in the light room from lights-on was recorded following an electric shock (1 mA for 2 s) in the dark compartment. […] The mean time spent to escape onto the platform was recorded."}, "p38": {"system": "p38", "assay": "p38 phosphorylation in HMO6 cells (western blot)", "assay_type": "cell-based, human", "settings": "Rg3 5 μg/ml, western blot (FIG. 18)", "experimental": "FIG. 18 is a photograph showing a result of western blot analysis for confirming the degree of phosphorylation of ERK (extracellular-regulated kinase) and p38, according to an embodiment of the present invention. Depending on the presence of Rg3, the levels of phospho-ERK and phospho-p38 protein were investigated by immune-blotting. HMO6 cells were treated with Rg3 (5 μg/ml) after plated on 60 mm cell culture plates and western blot analysis was performed after the cells were placed in phenol red negative/sere-free DMEM medium for 1 h. The western blot analysis was carried out three times independently.\nHMO6 cells were lysed in 1% RIPA buffer containing protease and phosphatase inhibitors (Roche, Mannheim, Germany) and whole-cell lysates were separated on 10% sodium dodecyl sulfate-polyacrylamide gel electrophoresis. After electrophoresis, the proteins were transferred to polyvinylidene fluoride membranes, and the membranes were blocked with 5% skim milk in Tris-buffered saline solution containing 0.1% Tween-20. The membranes were then immunoblotted with primary antibodies, anti-phospho-p38, anti-p38, anti-phospho-ERK, anti-ERK, and anti-f3-actin (Santa Cruz Biotechnology, USA), followed by incubation with horseradish peroxidase-conjugated anti-rabbit or anti-mouse secondary antibodies (Stressgen, USA). Blots were developed using an enhanced chemiluminescent solution (Thermo, USA)."}}, "data": [{"smiles": "CC(C)=CCC[C@](C)(O)[C@H]1CC[C@]2(C)[C@@H]1[C@H](O)C[C@@H]1[C@@]3(C)CC[C@H](O[C@@H]4O[C@H](CO)[C@@H](O)[C@H](O)[C@H]4O[C@@H]4O[C@H](CO)[C@@H](O)[C@H](O)[C@H]4O)C(C)(C)[C@@H]3CC[C@]12C", "note": "[ginsenoside Rg3]", "values": [{"measurement": "NEP mRNA", "setting": "NEP; HMO6 cells, Aβ42 (5 μM) and/or Rg3 (2.5 or 5 μg/ml), 24 h (FIG. 15D)", "result": "increased significantly"}, {"measurement": "NEP mRNA expression", "setting": "NEP; Rg3-treated HMO6 cells (FIG. 14)", "result": "dose-dependently increased"}, {"measurement": "learning and memory functions, passive avoidance", "setting": "Aβ42", "result": "maintained learning and memory functions at 4-5 weeks"}, {"measurement": "phosphorylation of p38", "setting": "p38", "result": "promoted the phosphorylation"}]}]}
